{
  "source": "patent US20200061062A1",
  "about": "“INHIBITORS OF HUMAN PHOSPHATIDYLINOSITOL 3-KINASE DELTA” (ICOS Corporation, priority 2000, published 2020)",
  "system": "human neutrophils",
  "test": "Superoxide production from neutrophils (cytochrome C reduction)",
  "type": "cell-based",
  "experimental": "Aliquots (8 mL) of heparinized blood from healthy volunteers were layered on 3 mL cushions of 7.3% FICOLL® (Sigma, St. Louis, Mo.) and 15.4% HYPAQUE® (Sigma) and centrifuged at 900 rpm for 30 min at room temperature in a table top centrifuge (Beckman). The neutrophil-rich band just above the FICOLL®-HYPAQUE® cushion was collected and washed with Hanks' balanced salt solution (HBSS) containing 0.1% gelatin. Residual erythrocytes were removed by hypotonic lysis with 0.2% NaCl. The neutrophil preparation was washed twice with HBSS containing 0.1% gelatin and used immediately.\nSuperoxide generation is one of the hallmarks of neutrophil activation. A variety of activators potentiate superoxide generation by neutrophils. The effect of the PI3Kδ inhibitor D-000 on superoxide generation by three different agonists: TNF1α, IgG, and fMLP, each representing separate classes of activator, was measured. Superoxide generated by the neutrophils was measured by monitoring the change in absorbance upon reduction of cytochrome C by modification of the method described by Green et al., (pp. 14.5.1-14.5.11 in Supp. 12, Curr Protocols Immunol (Eds., Colligan et al.) (1994)), as follows. Individual wells of a 96-well plate were coated overnight at 4° C. with 50 μL of 2 mg/mL solution of human fibrinogen or IgG. The wells were washed with PBS and the following reagents were added to each well: 50 μL of HBSS or superoxide dismutase (1 mg/mL), 50 μL of HBSS or TNF1α (50 ng/mL), 50 μL cytochrome C (2.7 mg/mL), and 100 μL of purified human neutrophil suspension ([…] cells/mL). The plate was centrifuged for 2 min at 200 rpm and absorbance at 550 nm was monitored for 2 hr. To measure the relative amounts of superoxide generated, values obtained from the superoxide dismutase-containing wells were subtracted from all, and normalized to the values obtained from the wells without any inhibitor.",
  "data": [
    {"smiles": "O=c1c2ccccc2nc(CSc2ncnc3[nH]cnc23)n1-c1ccccc1Cl", "note": "[Compound D-000, 3-(2-chlorophenyl)-2-(9H-purin-6-ylsulfanylmethyl)-3H-quinazolin-4-one]", "values": [
      {"measurement": "IC50", "setting": "Homo sapiens, Neutrophil, TNF stimulus, FIG. 2, read-out: Concentration reducing TNF-induced superoxide generation to its half-maximal value", "result": "~3000", "unit": "nM"},
      {"measurement": "Effect on superoxide generation induced by IgG", "setting": "IgG stimulus, at 10 μM, FIG. 2", "result": "did not have any effect"},
      {"measurement": "Effect on fMLP-induced superoxide generation", "setting": "fMLP stimulus, FIG. 3", "result": "inhibited"}
    ]}
  ]
}
